Measurements published in paper PMC5556071, “ATR inhibition facilitates targeting of leukemia dependence on convergent nucleotide biosynthetic pathways” (Nature Communications, 2017).
Where “and” joins values, the source holds several entries; their conditions need not be identical. Identical values can stand only once.

Tested on: CEM cells
Assay: Non-targeted LC-MS metabolite profiling: percent [13C6]glucose labeling and relative metabolite levels
Type: cell-based, human
Conditions: CEM cells, 12 h following release from G1 arrest, replicates #1-#6
Excerpt: To further investigate the functions of dCK and ATR at the G1/S transition in CEM cells, a non-targeted liquid chromatography mass spectrometry (LC-MS) assay was used to determine the utilization of labeled [^13C6]glucose and [^13C9,^15N3]deoxycytidine, the main substrates for de novo and salvage nucleotide biosynthesis, respectively. Of the 166 metabolites identified in CEM cells treated with VE-822 and/or dCKi, 105 metabolites found in all four treatment groups contained glucose-derived ^13C atoms. […] These metabolites included intermediates such as rUTP, rCTP and rCDP in the de novo dCTP biosynthesis (Fig. 1d). […] However, several deoxyribonucleotides, including dCTP, were below the limit of detection of the non-targeted LC-MS approach, raising the concern that the sensitivity of this assay is not sufficient to measure the contribution of the salvage pathway or the ratio of de novo and salvage biosynthesis to these pools. To address this problem, a newly developed targeted MS assay was developed (Fig. 1e and Supplementary Fig. 3). In this assay, samples containing either extracted dNTPs or hydrolyzed DNA from labeled cells are separated by LC for detection by a triple quadrupole mass spectrometer using multiple reaction monitoring (LC-MS/MS-MRM). The first (Q1) and third (Q3) quadrupoles function as mass filters, while the second (Q2) quadrupole serves as a collision chamber (Fig. 1e). For instance, to profile the biosynthetic composition of deoxycytidine (dC) derived from hydrolyzed DNA or dCTP, an intact, protonated dC ion is selected in Q1, followed by fragmentation of the glycosidic bond, which releases protonated cytosine in Q2, that is filtered in Q3 and detected to generate an ion chromatogram. The peak areas for the ion chromatograms of salvage [^13C9,^15N3]dC (red trace), de novo [^13C5]dC (black trace, from [^13C6]glucose) and unlabeled dC (gray trace) (Fig. 1e) are used to determine the relative contributions of the de novo and salvage routes both to dCTP pools and to DNA-incorporated dCTP.
Cells were transferred into RPMI-1640 without glucose and supplemented with 10% dialyzed FBS (Gibco) containing the following labeled substrates: precursors for de novo [U-^13C6]glucose (Sigma-Aldrich, 389374) at 11 mM; precursors for purine salvage [U-^13C10,^15N5]dA (Cambridge Isotopes, CIL 3896), [^15N5]dA (Cambridge Isotopes, NLM-3895) and [^15N5]dG (Cambridge Isotopes, NLM-3899) at 5 µM or as indicated; and precursors for pyrimidine salvage: [U-^13C9,^15N3]dC (Silantes, 124603602) and [U-^13C10,^15N2]dT (Cambridge Isotopes, CNLM-3902) at 5 µM and [^15N2]orotate (Cambridge Isotopes, NLM-1048) at indicated concentrations. The cells were incubated for 12 h or as indicated before sample collection and processing. […]
Non-targeted LC-MS metabolic assays. 1 x 10^6 cells were washed with ice-cold 150 mM ammonium acetate twice before adding 1 mL of ice-cold 80% methanol with 10 nM norvaline as an internal standard. After vigorous vortexing, samples were centrifuged at maximum speed, the aqueous layer was transferred to a glass vial and the metabolites were dried under vacuum. Metabolites were resuspended in 50 μL 70% acetonitrile (ACN) and 5 μL of this solution used for the mass spectrometer-based analysis. The analysis was performed on a Q Exactive (Thermo Scientific) in polarity-switching mode with positive voltage 4.0 kV and negative voltage 4.0 kV. The mass spectrometer was coupled to an UltiMate 3000RSLC (Thermo Scientific) UHPLC system. Mobile phase A was 5 mM ammonium acetate (NH4AcO), pH 9.9, B was acetonitrile and the separation achieved on a Luna […] NH2 100 A column (150 × 2.0 mm, Phenomenex). The flow was 200 μL/min, and the gradient ran from 15% A to 95% A in 18 min, followed by an isocratic step for 9 min and re-equilibration for 7 min. Metabolites were detected and quantified as area under the curve based on retention time and accurate mass (≤ 3 p.p.m.) using the TraceFinder 3.1 (Thermo Scientific). Relative amounts of […]

[1] = metabolite Asp (C00049), listed as V
[2] = metabolite Carnitine (C00318), listed as V
[3] = metabolite G3P (KEGG C00118), listed as V
[4] = metabolite G6P-F6P (KEGG C00668), listed as V
[5] = metabolite GABA (KEGG C00334), listed as V
[6] = metabolite GDP (KEGG C00035), listed as V
[7] = metabolite GMP (KEGG C00144), listed as V
[8] = metabolite GSH (KEGG C00051), listed as V
[9] = metabolite GSSG (KEGG C00127), listed as V
[10] = metabolite GTP (KEGG C00044), listed as V
[11] = metabolite Glc (KEGG C00031), listed as V
[12] = metabolite GlcA (KEGG C00257), listed as V
[13] = metabolite GlcN-6P (KEGG C00352), listed as V
[14] = metabolite GlcNAc-6P (KEGG C00357), listed as V

CNCc1ccc(-c2cc(-c3nc(-c4ccc(S(=O)(=O)C(C)C)cc4)cnc3N)on2)cc1 [VE-822]
Relative level, Asn (metabolite Asn (C00152), listed as V): 1.3 and 1.4 (2×) and 0.9 (3×) | Glucose labeling, Asp [1]: 22.64% and 22.44% and 22.12% and 21.45% and 21.35% and 21.96% | Relative level, Asp [1]: 1.8 and 1.3 and 1.4 and 1.5 and 0.9 and 1.0 | Glucose labeling, C (metabolite C (D07769), listed as V): 0.35% and 0.24% and 0.32% and 0.34% and 0.00758% and 0.36% | Relative level, C (metabolite C, listed as V): 1.9 (2×) and 2.0 and 1.8 and 2.3 and 2.5 | Glucose labeling, Carnitine [2]: 0.0372% and 0.00375% and 0.00443% and 0.00282% and 0.06% and 0.00331% | Relative level, Carnitine [2]: 0.9 and 1.0 (2×) and 0.7 (2×) and 0.8 | Glucose labeling of G3P [3]: 58.87% and 0.0369% (3×) and 100.00% (2×) | Relative level of G3P [3]: 0.952 and 0.6 (2×) and 0.2 and 0.456 | Glucose labeling of G6P-F6P [4]: 88.15% and 86.27% and 90.17% and 83.23% and 85.62% and 81.44% | Relative level of G6P-F6P [4]: 4.7 and 2.5 and 3.5 and 1.9 and 1.1 and 1.0 | Glucose labeling of GABA [5]: 0.05% and 0.04% and 0.0737% (4×) | Relative level of GABA [5]: 0.9 (2×) and 1.0 and 0.4 (2×) and 0.5 | Glucose labeling of GDP [6]: 66.45% and 57.13% and 62.54% and 65.67% and 61.42% and 68.88% | Relative level of GDP [6]: 2.9 and 0.7 and 1.2 and 1.1 and 0.647 and 0.351 | Glucose labeling of GMP [7]: 67.56% and 73.95% and 70.72% and 64.86% and 56.63% and 63.18% | Relative level of GMP [7]: 3.6 and 1.9 (2×) and 2.2 and 0.527 and 0.431 | Glucose labeling of GSH [8]: 22.37% and 21.90% and 25.59% and 18.14% and 18.31% and 18.93% | Relative level of GSH [8]: 1.4 and 1.1 and 0.9 and 0.6 and 0.557 and 0.5 | Glucose labeling of GSSG [9]: 41.97% and 38.91% and 39.41% and 36.66% and 34.27% and 31.20% | Relative level of GSSG [9]: 1.0 (2×) and 0.9 and 0.7 and 0.553 and 0.533 | Glucose labeling of GTP [10]: 66.00% and 75.98% and 68.76% and 65.13% and 72.51% and 69.15% | Relative level of GTP [10]: 1.6 and 0.4 (2×) and 0.8 and 0.9 and 0.378 | Glucose labeling of Glc [11]: 85.14% and 89.26% and 81.87% and 76.15% and 74.50% and 90.17% | Relative level of Glc [11]: 1.6 and 2.4 and 1.4 and 0.9 (2×) and 3.6 | Glucose labeling of GlcA [12]: 10.98% and 10.19% and 12.71% and 10.94% and 11.47% and 12.23% | Relative level of GlcA [12]: 0.9 and 0.6 and 0.566 and 0.5 and 0.3 (2×) | Glucose labeling of GlcN (metabolite GlcN (KEGG C00329)): 0.18% | Relative level of GlcN (metabolite GlcN (KEGG C00329), listed as V): 0.9 and 1.4 and 1.6 and 1.1 and 0.8 and 1.7 | Glucose labeling of GlcN-6P [13]: 6.56% and 5.43% and 4.48% and 7.20% and 4.32% and 4.29% | Relative level of GlcN-6P [13]: 0.65 and 0.8 and 0.6 and 0.7 (2×) and 0.653 | Glucose labeling of GlcNAc-6P [14]: 39.94% and 9.75% and 47.59% and 56.84% and 49.88% and 50.30% | Relative level of GlcNAc-6P [14]: 0.8 and 0.37 and 0.9 and 1.0 and 0.533 and 0.4
